Like-named read-outs stand apart in the source and are kept apart here.
Columns and labels:
PDE10 = molecular target: T1, PDE10 (Rattus norvegicus, UniProt Q9QYJ6); test: PDE10 occupancy ([3H]-MP-10, striatum); type: in vivo; settings: rat; for ED50: dose response; for receptor occupancy at 10 mg/kg: single dose 10 mg/kg, subcutaneous, read-out: SD sc % occupancy at 10 mg/kg
T1 construct: from tissue; host or cells: rat brain sections, striatum (in vivo dosing, ex vivo autoradiography)
T1 sequence (Q9QYJ6 1-794): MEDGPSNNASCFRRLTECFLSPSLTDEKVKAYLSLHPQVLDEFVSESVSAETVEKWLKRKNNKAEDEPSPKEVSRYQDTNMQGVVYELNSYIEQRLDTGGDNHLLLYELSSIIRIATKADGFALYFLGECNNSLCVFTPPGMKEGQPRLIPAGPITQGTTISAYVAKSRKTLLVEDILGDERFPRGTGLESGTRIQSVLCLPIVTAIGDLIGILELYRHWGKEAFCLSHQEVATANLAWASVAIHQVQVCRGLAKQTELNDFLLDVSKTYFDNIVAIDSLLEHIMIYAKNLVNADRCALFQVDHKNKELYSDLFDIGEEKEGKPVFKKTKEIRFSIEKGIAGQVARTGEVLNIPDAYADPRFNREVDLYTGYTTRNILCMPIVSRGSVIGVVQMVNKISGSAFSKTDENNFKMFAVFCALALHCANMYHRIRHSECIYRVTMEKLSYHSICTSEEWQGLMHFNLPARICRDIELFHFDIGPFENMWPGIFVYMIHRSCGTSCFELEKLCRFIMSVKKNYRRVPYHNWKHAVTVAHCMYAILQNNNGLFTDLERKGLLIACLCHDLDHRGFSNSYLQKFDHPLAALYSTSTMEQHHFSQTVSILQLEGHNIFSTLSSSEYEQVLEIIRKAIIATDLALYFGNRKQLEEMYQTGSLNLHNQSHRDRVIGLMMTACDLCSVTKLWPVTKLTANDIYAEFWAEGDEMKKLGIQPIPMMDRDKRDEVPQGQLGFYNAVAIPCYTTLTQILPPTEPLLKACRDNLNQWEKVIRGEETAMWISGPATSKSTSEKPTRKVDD
Procedure, shortened: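 Male Wistar rats (200 g) dosed s.c. or p.o.; occupancy measured 1 h post-dose. [^3H]-MP-10 (10 μCi/animal) given i.v. 30 min before sacrifice.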

[1] = test system: PCP-induced hyperlocomotion in rats; test: PCP-induced hyperlocomotion in rats; type: in vivo; settings: Rattus norvegicus
Method: Motor activity [horizontal activity (locomotion) and vertical activity (rearing)] was recorded in male Wiga rats (body weight: 175-275 g; housed overnight in groups of 7 rats) using microprocessor-based activity monitors (MED Associates; length×width×height: 43.2×43.2×41.5 cm) over a period of 30 min. The resolution of the system was set at 100 msec. Total distance was defined as the distance traveled, measured by changes in the number or location of interrupted xy-beams (located in two arrays of 32 infrared light beams (1.25 cm apart) perpendicular to each other in a horizontal plane 2.0 cm above the floor). Vertical activity was defined as the number of periods of continuous breaks reported by an infrared array of 32 light beams in a horizontal plane 13 cm above the floor. The intensity of the light within the activity meters (measured in the centre at floor level) ranged between 110 and 130 LUX.
Male Wiga rats (200 to 260 g) were pretreated with test compound or solvent (10 ml/kg, s.c.) and placed in individual cages. At a predefined interval thereafter (60 min.), the rats were challenged with PCP (1.25 mg/kg, i.v.) and motor activity was measured over a period of 30 min starting immediately after the PCP challenge. […]

PDE4D3 = PDE4D3 (Homo sapiens, UniProt Q08499); test: In vitro PDE selectivity assay (SPA), PDE4D3; type: biochemical; settings: hPDE4D3; read-out: PDE 4D3 (expressed as pIC50) (converted)
Sequence of PDE4D3 (Q08499 1-673 isoform Q08499-2): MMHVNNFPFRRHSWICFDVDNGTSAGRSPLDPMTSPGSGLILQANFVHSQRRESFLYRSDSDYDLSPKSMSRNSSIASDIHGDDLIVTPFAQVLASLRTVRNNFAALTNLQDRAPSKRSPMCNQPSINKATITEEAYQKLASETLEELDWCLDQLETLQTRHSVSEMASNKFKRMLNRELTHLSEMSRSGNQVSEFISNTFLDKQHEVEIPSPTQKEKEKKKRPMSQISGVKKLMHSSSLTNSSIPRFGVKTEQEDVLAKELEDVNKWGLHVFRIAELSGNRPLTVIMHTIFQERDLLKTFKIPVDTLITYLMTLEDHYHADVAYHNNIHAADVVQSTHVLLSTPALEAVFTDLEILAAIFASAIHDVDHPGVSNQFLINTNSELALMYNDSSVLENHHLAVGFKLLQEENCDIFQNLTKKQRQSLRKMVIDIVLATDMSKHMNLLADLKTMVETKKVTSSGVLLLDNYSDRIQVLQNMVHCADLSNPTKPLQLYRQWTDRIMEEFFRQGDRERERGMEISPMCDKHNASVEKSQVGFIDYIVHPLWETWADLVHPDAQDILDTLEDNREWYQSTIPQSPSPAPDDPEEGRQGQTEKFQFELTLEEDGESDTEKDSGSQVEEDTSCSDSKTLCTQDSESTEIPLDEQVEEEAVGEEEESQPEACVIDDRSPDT
Procedure, shortened: (§1)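 Inhibition of each PDE isoform was measured by scintillation proximity assay with ³H-cyclic nucleotide substrate, using incubation buffer, substrate concentration, incubation time and stop solution adapted per isoform. Compounds were tested in dose-response against 1% DMSO controls and enzyme-free blanks. IC50 came from a least-squares fit of blank-subtracted % of control versus concentration.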

PDE5A3 = PDE5A3 (Homo sapiens, UniProt O76074); test: In vitro PDE selectivity assay (SPA), PDE5A3; type: biochemical; settings: hPDE5A3; read-out: PDE 5A3 (expressed as pIC50) (converted)
Procedure, shortened: as §1

[2] = molecular target: other members of the PDE family (Homo sapiens, UniProt O00408); test: In vitro PDE selectivity assay (SPA), other members of the PDE family (protocols in Table A); type: biochemical; settings: hPDE2A; read-out: PDE 2A (expressed as pIC50) (converted)
Sequence of other members of the PDE family (Homo sapiens, UniProt O00408) (O00408 whole entry): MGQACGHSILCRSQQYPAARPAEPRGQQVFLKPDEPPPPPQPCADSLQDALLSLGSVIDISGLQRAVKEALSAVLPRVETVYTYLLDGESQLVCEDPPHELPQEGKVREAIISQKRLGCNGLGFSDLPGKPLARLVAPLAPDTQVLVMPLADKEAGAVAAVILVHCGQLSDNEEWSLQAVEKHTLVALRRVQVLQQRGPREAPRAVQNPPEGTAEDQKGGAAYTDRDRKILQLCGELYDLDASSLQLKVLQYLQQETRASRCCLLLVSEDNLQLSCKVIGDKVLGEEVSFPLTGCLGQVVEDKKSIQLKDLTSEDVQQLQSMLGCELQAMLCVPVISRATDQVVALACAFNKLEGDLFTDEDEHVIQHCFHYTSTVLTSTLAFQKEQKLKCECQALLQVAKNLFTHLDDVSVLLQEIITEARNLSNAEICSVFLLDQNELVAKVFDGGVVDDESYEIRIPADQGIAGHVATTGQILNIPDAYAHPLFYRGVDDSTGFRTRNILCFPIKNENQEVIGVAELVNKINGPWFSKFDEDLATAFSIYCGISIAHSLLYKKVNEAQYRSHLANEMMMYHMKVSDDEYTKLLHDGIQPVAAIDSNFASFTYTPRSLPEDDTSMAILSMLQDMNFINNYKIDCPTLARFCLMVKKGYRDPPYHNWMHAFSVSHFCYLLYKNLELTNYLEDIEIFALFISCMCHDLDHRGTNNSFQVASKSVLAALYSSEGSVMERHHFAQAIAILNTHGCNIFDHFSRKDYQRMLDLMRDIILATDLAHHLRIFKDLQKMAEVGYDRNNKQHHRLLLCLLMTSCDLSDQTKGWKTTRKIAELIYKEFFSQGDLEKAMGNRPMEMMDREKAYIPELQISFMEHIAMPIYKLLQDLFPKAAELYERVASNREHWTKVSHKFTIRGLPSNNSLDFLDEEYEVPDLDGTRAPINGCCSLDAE
Procedure, shortened: as §1

[3] = molecular target: other members of the PDE family (Homo sapiens, UniProt Q13946); test: as above; type: biochemical; settings: hPDE7A1; read-out: PDE 7A (expressed as pIC50) (converted)
Sequence of other members of the PDE family (Homo sapiens, UniProt Q13946) (Q13946 whole entry): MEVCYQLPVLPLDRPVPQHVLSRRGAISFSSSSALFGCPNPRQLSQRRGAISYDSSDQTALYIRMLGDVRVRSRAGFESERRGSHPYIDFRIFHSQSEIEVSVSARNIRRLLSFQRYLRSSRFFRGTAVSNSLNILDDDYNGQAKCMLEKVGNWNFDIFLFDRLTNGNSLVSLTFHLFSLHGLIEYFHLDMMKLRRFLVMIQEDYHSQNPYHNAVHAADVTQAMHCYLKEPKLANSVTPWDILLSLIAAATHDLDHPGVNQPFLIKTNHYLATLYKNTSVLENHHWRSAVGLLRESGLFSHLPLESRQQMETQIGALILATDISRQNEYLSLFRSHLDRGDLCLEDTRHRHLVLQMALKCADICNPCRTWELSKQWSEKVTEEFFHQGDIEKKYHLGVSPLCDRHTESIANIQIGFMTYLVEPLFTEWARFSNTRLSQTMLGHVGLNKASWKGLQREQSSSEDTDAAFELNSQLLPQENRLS
Procedure, shortened: as §1

[4] = molecular target: other members of the PDE family (Homo sapiens, UniProt Q14432); test: as above; type: biochemical; settings: hPDE3A; read-out: PDE 3A (expressed as pIC50) (converted)
Sequence of other members of the PDE family (Homo sapiens, UniProt Q14432) (Q14432 whole entry): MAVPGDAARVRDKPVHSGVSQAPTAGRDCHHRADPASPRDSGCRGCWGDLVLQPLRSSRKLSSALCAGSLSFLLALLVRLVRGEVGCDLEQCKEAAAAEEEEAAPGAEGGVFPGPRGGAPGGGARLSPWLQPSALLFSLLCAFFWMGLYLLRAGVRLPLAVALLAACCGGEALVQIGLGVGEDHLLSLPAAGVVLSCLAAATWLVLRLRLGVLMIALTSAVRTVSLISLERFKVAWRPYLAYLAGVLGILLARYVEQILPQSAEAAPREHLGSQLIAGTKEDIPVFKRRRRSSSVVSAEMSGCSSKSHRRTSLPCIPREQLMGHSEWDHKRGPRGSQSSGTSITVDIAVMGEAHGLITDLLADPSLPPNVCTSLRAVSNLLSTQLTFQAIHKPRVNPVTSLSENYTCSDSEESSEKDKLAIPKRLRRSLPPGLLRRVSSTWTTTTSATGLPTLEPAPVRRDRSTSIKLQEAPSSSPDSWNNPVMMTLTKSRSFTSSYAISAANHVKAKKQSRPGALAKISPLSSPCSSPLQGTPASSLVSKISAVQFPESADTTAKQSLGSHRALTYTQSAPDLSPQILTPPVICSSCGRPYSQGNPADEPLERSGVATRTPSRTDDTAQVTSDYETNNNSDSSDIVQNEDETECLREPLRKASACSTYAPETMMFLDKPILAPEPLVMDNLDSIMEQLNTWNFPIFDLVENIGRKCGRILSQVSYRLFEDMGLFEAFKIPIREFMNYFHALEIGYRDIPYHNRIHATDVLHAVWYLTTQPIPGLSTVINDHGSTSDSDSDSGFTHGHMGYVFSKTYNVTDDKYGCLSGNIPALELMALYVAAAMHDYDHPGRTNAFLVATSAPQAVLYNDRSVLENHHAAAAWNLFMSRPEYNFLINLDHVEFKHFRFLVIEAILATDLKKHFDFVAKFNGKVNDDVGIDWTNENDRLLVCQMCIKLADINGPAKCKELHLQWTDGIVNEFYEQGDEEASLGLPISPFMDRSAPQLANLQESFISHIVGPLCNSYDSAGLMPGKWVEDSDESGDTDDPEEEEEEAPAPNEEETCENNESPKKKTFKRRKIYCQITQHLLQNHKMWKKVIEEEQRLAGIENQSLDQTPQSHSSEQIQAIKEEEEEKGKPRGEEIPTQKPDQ
Procedure, shortened: as §1

[5] = sc, subcutaneous administration, read-out: PDE10 in vivo occupancy ED50 sc
[6] = oral administration, read-out: PDE10 in vivo occupancy ED50 po

Row | Structure (SMILES) | ED50 (PDE10; [5]) [mg/kg] | receptor occupancy at 10 mg/kg (PDE10; sc) [%] | ED50 (PDE10; [6]) [mg/kg] | ED50 [1] [mg/kg] | IC50 (PDE4D3) [µM] | IC50 (PDE5A3) [µM] | IC50 [2] [µM] | IC50 [3] [µM] | IC50 [4] [µM]
1 | COCCc1ccc(-c2c(C)nc3c(N4CCOCC4)ccnn23)cn1 [compound 1, 3-[6-(2-methoxyethyl)-3-pyridinyl]-2-methyl-8-(4-morpholinyl)-imidazo[1,2-b]pyridazine] | 0.48 | 76 | 1.4 | 2 | 30.9 | 17 | 39.8 | 69.2 | 97.7
2 | COCCOc1ccc(-c2c(C)nc3c(-c4ccncc4)ccnn23)cn1 [compound 21, 3-[6-(2-methoxyethoxy)-3-pyridinyl]-2-methyl-8-(4-pyridinyl)-imidazo[1,2-b]pyridazine] | 2.6 | 61 | 14 | 6.1 | 28.2 | 19.1 | 47.9 | > 50.1 | > 50.1

Source: patent US20120220581A1, “IMIDAZO[1,2-b]PYRIDAZINE DERIVATIVES AND THEIR USE AS PDE10 INHIBITORS” (Janssen-Cilag, S.A., priority 2009, published 2012)
